Test results: US6696467B2, “Quinoline derivatives” (Hoffmann-La Roche Inc., priority 2002, dated 2004)

Target: T1, recombinant mouse NPY5-receptor (mNPY5) (Mus musculus, UniProt O70342)
T1 construct: The full-length cDNA encoding the mouse NPY5 (mNPY5) receptor was amplified from mouse brain cDNA; expressed in transfected cells; membranes used
T1 sequence (O70342 1-466): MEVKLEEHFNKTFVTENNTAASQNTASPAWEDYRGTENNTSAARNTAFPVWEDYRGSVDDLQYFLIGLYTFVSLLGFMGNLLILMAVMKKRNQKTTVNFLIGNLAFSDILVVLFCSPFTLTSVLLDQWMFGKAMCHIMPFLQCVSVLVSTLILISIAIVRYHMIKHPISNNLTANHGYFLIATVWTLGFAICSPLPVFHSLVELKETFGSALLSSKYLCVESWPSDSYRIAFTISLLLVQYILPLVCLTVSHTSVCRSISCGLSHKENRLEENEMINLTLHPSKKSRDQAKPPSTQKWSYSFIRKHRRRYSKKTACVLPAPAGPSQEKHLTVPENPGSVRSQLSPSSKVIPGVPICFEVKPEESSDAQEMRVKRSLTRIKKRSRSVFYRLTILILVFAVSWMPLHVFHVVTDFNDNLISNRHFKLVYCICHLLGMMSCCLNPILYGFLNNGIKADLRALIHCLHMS
Test: Radioligand competition binding
Details: displacement of 100 pM [125I]labelled peptide YY (PYY), membranes of HEK293 cells expressing mNPY5, 1 h at 22° C.
Excerpt: The full-length cDNA encoding the mouse NPY5 (mNPY5) receptor was amplified from mouse brain cDNA using specific primers, designed based on the published sequence, and Pfu DNA-Polymerase (Stratagene). The amplification product was subcloned into the mammalian expression vector pcDNA3 using Eco RI and XhoI restriction sites. Positive clones were sequenced and one clone, encoding the published sequence (see Borowsky B., et al., Regul. Pept., 75-76:45-53 (1998)) was selected for generation of stable cell clones.
Human embryonic kidney 293 (HEK293) (ATCC No. CRL-1573) cells were transfected with 10 μg mNPY5 DNA using the lipofectamine reagent (Gibco BRL) according to the manufacturer's instruction. Two days after transfection, geneticin selection (1 mg/ml) was initiated and several stable clones were isolated. One clone was further used for pharmacological characterization.
Human embryonic kidney 293 cells (HEK293), expressing recombinant mouse NPY5-receptor (mNPY5) were broken by three freeze/thawing cycles in hypotonic Tris buffer (5 mM, pH 7.4, 1 mM MgCl2), homogenized and centrifuged at 72,000×g for 15 min. […] Protein was determined according to the method of Lowry using bovine serum albumine (BSA) as a standard. […]

## Cc1cc(N2CCCC2)c2ccc(NCC(C)C)cc2n1 [Example 2, isobutyl-(2-methyl-4-pyrrolidin-1-yl-quinolin-7-yl)-amine]
  IC50: 0.7 nM

## Cc1cc(N2CCCC2)c2ccc(NC(=O)c3ccco3)cc2n1 [Example 54, furan-2-carboxylic acid (2-methyl-4-pyrrolidin-1-yl-quinolin-7-yl)-amide]
  IC50: 0.3 nM
